Results reported in the supplement of paper PMC10307832.

Experiments:
Assay in all cases: relative viability (nuclei count vs DMSO), 5 days (fraction); higher = more cells survive
[1] = compound: C1CC1C(=O)NC2=NNC3=C2C=CC(=C3)C4=CC(=CC=C4)C(=O)NC5CC5 [XMD13-2] + C[C@]1(O)C[C@@H](c2nc(-c3ccc4ccc(-c5ccccc5)nc4c3)c3c(N)nccn32)C1 [Linsitinib] (partner 1 µM)
In short: (§1)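 Cells from lung cancer lines were seeded into 1536-well plates and, one day later, dosed by pin tool. Treatments were either a single drug or a fixed dose of an anchor drug with five library-drug doses (not always all listed) in √10 steps. After 5 days, nuclei were stained in a one-step fixation (final 0.05% Triton X-100, 1% formaldehyde, 1 ug/ml Hoechst) and counted on 4× images, and relative viability is the treated-to-vehicle nuclei ratio, as the median of duplicate plates.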

[2] = compound: C1CC1C(=O)NC2=NNC3=C2C=CC(=C3)C4=CC(=CC=C4)C(=O)NC5CC5 [XMD13-2] + Cc1cc(Nc2cc(N3CCN(C)CC3)nc(Sc3ccc(NC(=O)C4CC4)cc3)n2)n[nH]1 [Tozasertib] (partner 0.1 µM)
In short: as §1

[3] = compound: C1CC1C(=O)NC2=NNC3=C2C=CC(=C3)C4=CC(=CC=C4)C(=O)NC5CC5 [XMD13-2] + Nc1nc2[nH]cc(CCc3ccc(C(=O)N[C@@H](CCC(=O)O)C(=O)O)cc3)c2c(=O)[nH]1 [Pemetrexed] (partner 0.2 µM)
In short: as §1

[4] = compound: Cc1ccc(C(=O)Nc2cccc(C(F)(F)F)c2)cc1Nc1cncc(C(N)=O)c1 [ALW-II-49-7] + CC(C)C[C@H](NC(=O)[C@H](Cc1ccccc1)NC(=O)c1cnccn1)B(O)O [Bortezomib] (partner 0.002 µM)
In short: as §1

Question: With UMC-11 as the cell line, how does the relative viability ([1]; first compound 0.05 µM) read?
Answer: 1.18

Question: What about the relative viability ([1]; first compound 0.1581 µM) of the same cell line?
Answer: 0.942

Question: What about the relative viability ([1]; first compound 0.5 µM) of the same cell line?
Answer: 0.996

Question: What about the relative viability ([1]; first compound 1.581 µM) of the same cell line?
Answer: 1.07

Question: And the relative viability ([1]; first compound 5 µM)?
Answer: 1.04

Question: And the relative viability ([2]; first compound 0.05 µM)?
Answer: 0.188

Question: And the relative viability ([2]; first compound 0.1581 µM)?
Answer: 0.197

Question: What about the relative viability ([2]; first compound 0.5 µM) of the same cell line?
Answer: 0.197

Question: What about the relative viability ([2]; first compound 1.581 µM) of the same cell line?
Answer: 0.204

Question: What about the relative viability ([2]; first compound 5 µM) of the same cell line?
Answer: 0.192

Question: And the relative viability ([3]; first compound 0.05 µM)?
Answer: 0.914

Question: And the relative viability ([3]; first compound 0.1581 µM)?
Answer: 0.761

Question: What about the relative viability ([3]; first compound 0.5 µM) of the same cell line?
Answer: 0.791

Question: And the relative viability ([3]; first compound 1.581 µM)?
Answer: 0.845

Question: And the relative viability ([3]; first compound 5 µM)?
Answer: 0.772

Question: What about the relative viability ([4]; first compound 0.08 µM) of the same cell line?
Answer: 0.514

Question: And the relative viability ([4]; first compound 0.253 µM)?
Answer: 0.786

Question: What about the relative viability ([4]; first compound 2.53 µM) of the same cell line?
Answer: 0.792

Question: And the relative viability ([4]; first compound 8 µM)?
Answer: 0.521
